Consider three compounds from the NIST ThermoML archive (doi:10.1016/j.fluid.2006.07.003).

± gives the expanded uncertainty stated by the source.

The conditions of data set [1]: Liquid; for mass density: 298.15 K, 101.33 kPa.
Data set [2] can be described thus: refractive index (Na D-line) (dimensionless). The settings on record: 298.15 K; 101.33 kPa; Liquid; Standard Abbe refractometry.

Broadly, the mass density is the mass of a sample divided by its volume. Broadly, the vapor or sublimation pressure is the pressure of vapour in equilibrium with the condensed phase. For orientation: refractive index means a measure of how strongly the sample bends light. Consider `CCCO` [propan-1-ol], for which the mass density in data set [1] is reported as 799.62 ± 0.48 kg/m3. Besides, the “vapor or sublimation pressure” value in data set [1] (369.75 K) is recorded as 101.3 ± 1.8 kPa. For the same compound, the refractive index in data set [2] is recorded as 1.3836 ± 0.0007.
Regarding `CCCOCCC` [dipropyl ether], the mass density in data set [1] came out at 741.81 ± 0.91 kg/m3. Besides, the “vapor or sublimation pressure” value in data set [1] (363.16 K) came out at 101.3 ± 1.8 kPa. The refractive index in data set [2] is listed as 1.3784 ± 0.0008.
Take `CCCCCO` [pentan-1-ol]: the mass density in data set [1] is on record as 810.89 ± 0.77 kg/m3. Also, the “vapor or sublimation pressure” value in data set [1] (410.62 K) was 101.3 ± 1.8 kPa. In addition, the refractive index in data set [2] is given as 1.408 ± 0.0008.
